Measurements published in ChEMBL document CHEMBL3580659, “One-pot multicomponent synthesis of indole incorporated thiazolylcoumarins and their antibacterial, anticancer and DNA cleavage studies” (2015).

How the values were obtained:
Format in all cases: functional
HCT-15 = test: Cytotoxicity against human HCT15 cells assessed as cell growth level at 10 nM after 48 hrs by sulforhodamine B assay
SF-295 = test: Cytotoxicity against human SF295 cells assessed as cell growth level at 100 uM after 48 hrs by sulforhodamine B assay
LOX IMVI = test: Cytotoxicity against human LOXIMVI cells assessed as cell growth level at 1 uM after 48 hrs by sulforhodamine B assay
SK-MEL-5 [1] = test: Cytotoxicity against human SK-MEL-5 cells assessed as cell growth level at 100 nM after 48 hrs by sulforhodamine B assay
SK-OV-3 = test: Cytotoxicity against human SKOV3 cells assessed as cell growth level at 100 nM after 48 hrs by sulforhodamine B assay
CAKI-1 = test: Cytotoxicity against human CAKI-1 cells after 48 hrs by sulforhodamine B assay; conditions: CAKI-1, 48 h
RXF 393 [2] = test: Cytotoxicity against human RXF393 cells assessed as cell growth level at 100 nM after 48 hrs by sulforhodamine B assay
MDA-MB-468 = test: Cytotoxicity against human MDA-MB-468 cells assessed as cell growth level at 100 nM after 48 hrs by sulforhodamine B assay
ACHN = test: Cytotoxicity against human ACHN cells assessed as cell growth level at 100 uM after 48 hrs by sulforhodamine B assay
HCT-116 [3] = test: Cytotoxicity against human HCT116 cells assessed as cell growth level at 10 nM after 48 hrs by sulforhodamine B assay
HOP-62 = test: Cytotoxicity against human HOP62 cells assessed as cell growth level at 100 uM after 48 hrs by sulforhodamine B assay
CCRF-CEM [4] = test: Cytotoxicity against human CCRF-CEM cells assessed as cell growth level at 10 nM after 48 hrs by sulforhodamine B assay
MOLT-4 = test: Cytotoxicity against human MOLT4 cells assessed as cell growth level at 100 uM after 48 hrs by sulforhodamine B assay
NCI-H226 = test: Cytotoxicity against human NCI-H226 cells assessed as cell growth level at 1 uM after 48 hrs by sulforhodamine B assay
HCT-116 [5] = test: Cytotoxicity against human HCT116 cells after 48 hrs by sulforhodamine B assay; conditions: HCT-116, 48 h
RXF 393 [6] = test: Cytotoxicity against human RXF393 cells assessed as cell growth level at 1 uM after 48 hrs by sulforhodamine B assay
IGROV-1 = test: Cytotoxicity against human IGROV1 cells assessed as cell growth level at 10 nM after 48 hrs by sulforhodamine B assay
NCI-H322M = test: Cytotoxicity against human NCI-H322M cells assessed as cell growth level at 100 nM after 48 hrs by sulforhodamine B assay
OVCAR-3 = test: Cytotoxicity against human OVCAR3 cells assessed as cell growth level at 100 nM after 48 hrs by sulforhodamine B assay
OVCAR-5 = test: Cytotoxicity against human OVCAR5 cells assessed as cell growth level at 10 uM after 48 hrs by sulforhodamine B assay
HOP-92 = test: Cytotoxicity against human HOP92 cells assessed as cell growth level at 1 uM after 48 hrs by sulforhodamine B assay
SN12C = test: Cytotoxicity against human SN12C cells assessed as cell growth level at 100 nM after 48 hrs by sulforhodamine B assay
NCI-H23 = test: Cytotoxicity against human NCI-H23 cells assessed as cell growth level at 10 nM after 48 hrs by sulforhodamine B assay
Escherichia coli = test: Antibacterial activity against Escherichia coli assessed as bacterial growth inhibition at 50 ug/ml after 24 hrs by cup-plate agar diffusion method; conditions: read-out: IZ
M14 = test: Cytotoxicity against human M14 cells assessed as cell growth level at 100 nM after 48 hrs by sulforhodamine B assay
SR [7] = test: Cytotoxicity against human SR cells assessed as cell growth level at 10 uM after 48 hrs by sulforhodamine B assay
SR [8] = test: Cytotoxicity against human SR cells after 48 hrs by sulforhodamine B assay
PC-3 = test: Cytotoxicity against human PC3 cells assessed as cell growth level at 10 nM after 48 hrs by sulforhodamine B assay
CCRF-CEM [9] = test: Cytotoxicity against human CCRF-CEM cells after 48 hrs by sulforhodamine B assay
KM12 = test: Cytotoxicity against human KM12 cells assessed as cell growth level at 1 uM after 48 hrs by sulforhodamine B assay
HCT-116 [10] = test: Cytotoxicity against human HCT116 cells assessed as cell growth level at 10 uM after 48 hrs by sulforhodamine B assay
[11] = Cytotoxicity against human NCI-ADR-RES cells assessed as cell growth level at 100 nM after 48 hrs by sulforhodamine B assay
SF-268 = test: Cytotoxicity against human SF268 cells assessed as cell growth level at 10 uM after 48 hrs by sulforhodamine B assay
UO-31 = test: Cytotoxicity against human UO31 cells assessed as cell growth level at 100 nM after 48 hrs by sulforhodamine B assay
SK-MEL-2 = test: Cytotoxicity against human SK-MEL-2 cells assessed as cell growth level at 10 nM after 48 hrs by sulforhodamine B assay
SR [12] = test: Cytotoxicity against human SR cells assessed as cell growth level at 100 uM after 48 hrs by sulforhodamine B assay
RPMI-8226 = test: Cytotoxicity against human RPMI8226 cells after 48 hrs by sulforhodamine B assay; conditions: RPMI-8226, 48 h
SK-MEL-5 [13] = test: Cytotoxicity against human SK-MEL-5 cells assessed as cell growth level at 100 uM after 48 hrs by sulforhodamine B assay
UACC-257 = test: Cytotoxicity against human UACC257 cells after 48 hrs by sulforhodamine B assay; conditions: UACC-257, 48 h
[14] = read-out: LC50 (the source's name)
[15] = read-out: pLC50 (the source's name) (converted)

For `O=c1oc2ccccc2cc1-c1csc(N/N=C/c2c[nH]c3ccccc23)n1`, which Activity (HCT-15) is on record?
The Activity was 95%.

And the Activity (SF-295)?
Its Activity is -71%.

And the Activity (LOX IMVI)?
Its Activity is 74%.

What about the Activity (SK-MEL-5 [1]) of the same molecule?
The Activity was 88%.

And the Activity (SK-OV-3)?
Its Activity is 90%.

And the GI50 (CAKI-1; read-out: GI50)?
The GI50 was 1.61 µM.

What about the CC50 (CAKI-1; [14]) of the same molecule?
Its CC50 is greater than 100 µM.

And the TGI (CAKI-1; read-out: TGI)?
Its TGI is 4.65 µM.

And the GI50 (CAKI-1; read-out: pGI50 (converted))?
Its GI50 is 1.62 µM.

What about the CC50 (CAKI-1; [15]) of the same molecule?
Its CC50 is greater than 100 µM.

What about the TGI (CAKI-1; read-out: pTGI (converted)) of the same molecule?
The TGI was 4.68 µM.

What about the Activity (RXF 393 [2]) of the same molecule?
Its Activity is 93%.

What about the Activity (MDA-MB-468) of the same molecule?
Its Activity is 83%.

And the Activity (ACHN)?
Its Activity is -45%.

And the Activity (HCT-116 [3])?
Its Activity is 92%.

And the Activity (HOP-62)?
Its Activity is -24%.

And the Activity (CCRF-CEM [4])?
The Activity was 100%.

What about the Activity (MOLT-4) of the same molecule?
Its Activity is -40%.

And the Activity (NCI-H226)?
The Activity was 101%.

And the GI50 (HCT-116 [5]; read-out: GI50)?
The GI50 was 1.6 µM.

And the CC50 (HCT-116 [5]; [14])?
Its CC50 is 6.49 µM.

What about the TGI (HCT-116 [5]; read-out: TGI) of the same molecule?
The TGI was 3.22 µM.

And the GI50 (HCT-116 [5]; read-out: pGI50 (converted))?
Its GI50 is 1.58 µM.

What about the CC50 (HCT-116 [5]; [15]) of the same molecule?
Its CC50 is 6.46 µM.

What about the TGI (HCT-116 [5]; read-out: pTGI (converted)) of the same molecule?
Its TGI is 3.24 µM.

What about the Activity (RXF 393 [6]) of the same molecule?
Its Activity is 53%.

And the Activity (IGROV-1)?
The Activity was 108%.

And the Activity (NCI-H322M)?
The Activity was 102%.

And the Activity (OVCAR-3)?
The Activity was 90%.

And the Activity (OVCAR-5)?
Its Activity is 55.24%.

And the Activity (HOP-92)?
The Activity was 87%.

What about the Activity (SN12C) of the same molecule?
Its Activity is 90%.

What about the Activity (NCI-H23) of the same molecule?
Its Activity is 86%.

What about the zone of inhibition at 50 µg/mL (Escherichia coli) of the same molecule?
Its zone of inhibition at 50 µg/mL is 15 mm.

What about the Activity (M14) of the same molecule?
Its Activity is 92%.

And the Activity (SR [7])?
The Activity was -0.54%.

And the GI50 (SR [8]; read-out: GI50)?
Its GI50 is 1.83 µM.

What about the LC50 (SR [8]; read-out: LC50) of the same molecule?
Its LC50 is greater than 100 µM.

And the TGI (SR [8]; read-out: TGI)?
Its TGI is 4.92 µM.

And the GI50 (SR [8]; read-out: pGI50 (converted))?
Its GI50 is 1.82 µM.

What about the LC50 (SR [8]; read-out: pLC50 (converted)) of the same molecule?
Its LC50 is greater than 100 µM.

And the TGI (SR [8]; read-out: pTGI (converted))?
The TGI was 4.9 µM.

And the Activity (PC-3)?
Its Activity is 105%.

What about the GI50 (CCRF-CEM [9]; read-out: GI50) of the same molecule?
The GI50 was 0.33 µM.

What about the LC50 (CCRF-CEM [9]; read-out: LC50) of the same molecule?
The LC50 was greater than 100 µM.

And the TGI (CCRF-CEM [9]; read-out: TGI)?
Its TGI is 1.78 µM.

What about the GI50 (CCRF-CEM [9]; read-out: pGI50 (converted)) of the same molecule?
The GI50 was 0.339 µM.

And the LC50 (CCRF-CEM [9]; read-out: pLC50 (converted))?
Its LC50 is greater than 100 µM.

What about the TGI (CCRF-CEM [9]; read-out: pTGI (converted)) of the same molecule?
Its TGI is 1.78 µM.

What about the Activity (KM12) of the same molecule?
Its Activity is 95%.

What about the Activity (HCT-116 [10]) of the same molecule?
Its Activity is 7.48%.

And the Activity [11]?
The Activity was 110%.

And the Activity (SF-268)?
The Activity was 14.73%.

And the Activity (UO-31)?
The Activity was 91%.

And the Activity (SK-MEL-2)?
Its Activity is 98%.

What about the Activity (SR [12]) of the same molecule?
The Activity was -46%.

What about the GI50 (RPMI-8226; read-out: GI50) of the same molecule?
Its GI50 is 0.9 µM.

What about the CC50 (RPMI-8226; [14]) of the same molecule?
Its CC50 is greater than 100 µM.

And the TGI (RPMI-8226; read-out: TGI)?
Its TGI is 4.79 µM.

What about the GI50 (RPMI-8226; read-out: pGI50 (converted)) of the same molecule?
Its GI50 is 0.912 µM.

And the CC50 (RPMI-8226; [15])?
The CC50 was greater than 100 µM.

And the TGI (RPMI-8226; read-out: pTGI (converted))?
The TGI was 4.79 µM.

And the Activity (SK-MEL-5 [13])?
Its Activity is -46%.

What about the GI50 (UACC-257; read-out: GI50) of the same molecule?
The GI50 was 2.15 µM.

What about the CC50 (UACC-257; [14]) of the same molecule?
The CC50 was greater than 100 µM.

What about the TGI (UACC-257; read-out: TGI) of the same molecule?
The TGI was 5.63 µM.

And the GI50 (UACC-257; read-out: pGI50 (converted))?
The GI50 was 2.14 µM.

What about the CC50 (UACC-257; [15]) of the same molecule?
The CC50 was greater than 100 µM.

And the TGI (UACC-257; read-out: pTGI (converted))?
Its TGI is 5.62 µM.
